Activity calls are given as the source filed them. The calls are words filed in the database; no cut-off is given here.
Target: Cav1.2 (voltage-dependent L-type calcium channel subunit alpha-1C) (Rattus norvegicus, UniProt P22002)
Experiment: Inhibition of rat Cav1.2 at 10 uM at -90 mV holding potential by patch clamp electrophysiology assay relative to control

Chain of Cav1.2 (voltage-dependent L-type calcium channel subunit alpha-1C) (P22002 whole entry): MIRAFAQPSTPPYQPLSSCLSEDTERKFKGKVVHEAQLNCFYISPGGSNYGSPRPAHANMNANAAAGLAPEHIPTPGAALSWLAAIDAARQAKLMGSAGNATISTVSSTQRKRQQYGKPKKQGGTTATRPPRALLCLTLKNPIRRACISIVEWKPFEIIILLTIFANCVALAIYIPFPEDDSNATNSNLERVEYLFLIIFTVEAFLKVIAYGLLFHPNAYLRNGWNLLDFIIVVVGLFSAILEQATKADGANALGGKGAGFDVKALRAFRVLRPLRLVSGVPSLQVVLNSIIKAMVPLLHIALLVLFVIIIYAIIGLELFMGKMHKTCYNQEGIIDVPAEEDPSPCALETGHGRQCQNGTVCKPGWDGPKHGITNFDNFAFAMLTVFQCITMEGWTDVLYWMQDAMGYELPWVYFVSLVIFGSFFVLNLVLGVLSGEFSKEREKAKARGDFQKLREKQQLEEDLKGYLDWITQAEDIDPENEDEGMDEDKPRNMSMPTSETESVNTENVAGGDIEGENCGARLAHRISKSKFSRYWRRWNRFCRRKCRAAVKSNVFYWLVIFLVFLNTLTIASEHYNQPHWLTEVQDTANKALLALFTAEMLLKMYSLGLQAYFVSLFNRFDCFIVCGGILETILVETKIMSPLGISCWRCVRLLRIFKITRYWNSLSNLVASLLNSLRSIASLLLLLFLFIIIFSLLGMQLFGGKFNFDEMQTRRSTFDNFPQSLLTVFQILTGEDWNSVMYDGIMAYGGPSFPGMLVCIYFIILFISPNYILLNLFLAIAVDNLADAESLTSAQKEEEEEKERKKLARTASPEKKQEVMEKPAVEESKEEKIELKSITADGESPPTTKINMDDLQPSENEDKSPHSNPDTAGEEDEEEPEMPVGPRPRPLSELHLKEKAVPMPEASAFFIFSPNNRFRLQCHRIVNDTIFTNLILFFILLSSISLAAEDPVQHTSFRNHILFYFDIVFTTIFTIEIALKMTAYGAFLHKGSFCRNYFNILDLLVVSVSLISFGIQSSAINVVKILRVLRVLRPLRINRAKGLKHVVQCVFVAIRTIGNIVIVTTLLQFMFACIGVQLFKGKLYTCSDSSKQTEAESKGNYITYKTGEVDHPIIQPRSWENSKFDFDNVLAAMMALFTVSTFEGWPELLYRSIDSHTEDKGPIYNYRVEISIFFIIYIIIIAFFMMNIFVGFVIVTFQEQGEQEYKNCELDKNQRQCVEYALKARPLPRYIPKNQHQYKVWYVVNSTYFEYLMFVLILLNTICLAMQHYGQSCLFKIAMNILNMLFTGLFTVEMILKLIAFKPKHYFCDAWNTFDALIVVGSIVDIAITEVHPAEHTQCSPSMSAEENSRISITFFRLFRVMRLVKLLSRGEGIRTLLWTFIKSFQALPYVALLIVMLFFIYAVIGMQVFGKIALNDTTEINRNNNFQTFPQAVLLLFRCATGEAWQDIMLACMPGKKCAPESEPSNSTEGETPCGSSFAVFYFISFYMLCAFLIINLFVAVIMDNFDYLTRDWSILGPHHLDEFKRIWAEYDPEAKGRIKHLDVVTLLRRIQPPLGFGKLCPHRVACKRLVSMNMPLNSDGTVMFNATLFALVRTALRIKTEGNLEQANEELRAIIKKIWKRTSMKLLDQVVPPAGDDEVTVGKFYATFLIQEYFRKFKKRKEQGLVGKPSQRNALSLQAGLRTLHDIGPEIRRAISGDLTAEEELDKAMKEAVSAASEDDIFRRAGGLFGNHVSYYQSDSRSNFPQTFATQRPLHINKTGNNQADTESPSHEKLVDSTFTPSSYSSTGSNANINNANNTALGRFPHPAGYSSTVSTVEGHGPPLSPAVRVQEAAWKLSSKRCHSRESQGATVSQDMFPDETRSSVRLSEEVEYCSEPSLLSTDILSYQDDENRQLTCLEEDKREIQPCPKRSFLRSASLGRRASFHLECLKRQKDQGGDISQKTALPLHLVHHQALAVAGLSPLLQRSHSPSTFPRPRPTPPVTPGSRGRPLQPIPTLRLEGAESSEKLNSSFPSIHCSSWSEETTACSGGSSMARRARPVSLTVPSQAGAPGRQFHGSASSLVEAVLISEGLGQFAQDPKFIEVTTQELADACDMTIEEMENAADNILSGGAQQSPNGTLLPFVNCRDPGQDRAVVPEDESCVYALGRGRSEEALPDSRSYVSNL

| SMILES | inhibition at 10 µM [%] |
| --- | --- |
| CC1=C(C(=O)OCC(C)C)C(c2cc([N+](=O)[O-])ccc2O)C2=C(CC(C)(C)CC2=O)N1 (centres undefined) | 30 |
| CC1=C(C(=O)OCc2ccccc2)C(c2cc([N+](=O)[O-])ccc2O)C2=C(CCC(C)(C)C2=O)N1 (centres undefined) | 70 |
| CCOC(=O)C1=C(C)NC2=C(C(=O)C(C)(C)CC2)C1c1cc([N+](=O)[O-])ccc1O (centres undefined) | 70 |
| COC(=O)C1=C(C)NC2=C(C(=O)C(C)(C)CC2)C1c1cc([N+](=O)[O-])ccc1O (centres undefined) | < 30 |
| CC1=C(C(=O)OCC(C)C)C(c2cc([N+](=O)[O-])cc(Br)c2O)C2=C(CCC(C)(C)C2=O)N1 (centres undefined) | 15 |
| CC1=C(C(=O)OCC(C)C)C(c2cc([N+](=O)[O-])cc(Br)c2O)C2=C(CC(C)(C)CC2=O)N1 (centres undefined) | 70 |
| CC1=C(C(=O)OCC(C)C)C(c2cc(Br)cc([N+](=O)[O-])c2O)C2=C(CCC(C)(C)C2=O)N1 (centres undefined) | 10 |
| CC1=C(C(=O)OC(C)(C)C)C(c2cc([N+](=O)[O-])ccc2O)C2=C(CCC(C)(C)C2=O)N1 (centres undefined) | < 30 |
| CCOC(=O)C1=C(C)NC2=C(C(=O)C(C)(C)CC2)C1c1cc(Br)cc([N+](=O)[O-])c1O (centres undefined) | 50 |
| CC1=C(C(=O)OCC(C)C)C(c2cc([N+](=O)[O-])ccc2O)C2=C(CCC(C)(C)C2=O)N1 (centres undefined) | 70 |

Target: Voltage-dependent T-type calcium channel subunit alpha-1H (Homo sapiens) (UniProt O95180)
Experiment: Inhibition of human Cav3.2 at 10 uM at -110 mV holding potential by patch clamp electrophysiology assay

Chain of Voltage-dependent T-type calcium channel subunit alpha-1H (Homo sapiens) (O95180 whole entry): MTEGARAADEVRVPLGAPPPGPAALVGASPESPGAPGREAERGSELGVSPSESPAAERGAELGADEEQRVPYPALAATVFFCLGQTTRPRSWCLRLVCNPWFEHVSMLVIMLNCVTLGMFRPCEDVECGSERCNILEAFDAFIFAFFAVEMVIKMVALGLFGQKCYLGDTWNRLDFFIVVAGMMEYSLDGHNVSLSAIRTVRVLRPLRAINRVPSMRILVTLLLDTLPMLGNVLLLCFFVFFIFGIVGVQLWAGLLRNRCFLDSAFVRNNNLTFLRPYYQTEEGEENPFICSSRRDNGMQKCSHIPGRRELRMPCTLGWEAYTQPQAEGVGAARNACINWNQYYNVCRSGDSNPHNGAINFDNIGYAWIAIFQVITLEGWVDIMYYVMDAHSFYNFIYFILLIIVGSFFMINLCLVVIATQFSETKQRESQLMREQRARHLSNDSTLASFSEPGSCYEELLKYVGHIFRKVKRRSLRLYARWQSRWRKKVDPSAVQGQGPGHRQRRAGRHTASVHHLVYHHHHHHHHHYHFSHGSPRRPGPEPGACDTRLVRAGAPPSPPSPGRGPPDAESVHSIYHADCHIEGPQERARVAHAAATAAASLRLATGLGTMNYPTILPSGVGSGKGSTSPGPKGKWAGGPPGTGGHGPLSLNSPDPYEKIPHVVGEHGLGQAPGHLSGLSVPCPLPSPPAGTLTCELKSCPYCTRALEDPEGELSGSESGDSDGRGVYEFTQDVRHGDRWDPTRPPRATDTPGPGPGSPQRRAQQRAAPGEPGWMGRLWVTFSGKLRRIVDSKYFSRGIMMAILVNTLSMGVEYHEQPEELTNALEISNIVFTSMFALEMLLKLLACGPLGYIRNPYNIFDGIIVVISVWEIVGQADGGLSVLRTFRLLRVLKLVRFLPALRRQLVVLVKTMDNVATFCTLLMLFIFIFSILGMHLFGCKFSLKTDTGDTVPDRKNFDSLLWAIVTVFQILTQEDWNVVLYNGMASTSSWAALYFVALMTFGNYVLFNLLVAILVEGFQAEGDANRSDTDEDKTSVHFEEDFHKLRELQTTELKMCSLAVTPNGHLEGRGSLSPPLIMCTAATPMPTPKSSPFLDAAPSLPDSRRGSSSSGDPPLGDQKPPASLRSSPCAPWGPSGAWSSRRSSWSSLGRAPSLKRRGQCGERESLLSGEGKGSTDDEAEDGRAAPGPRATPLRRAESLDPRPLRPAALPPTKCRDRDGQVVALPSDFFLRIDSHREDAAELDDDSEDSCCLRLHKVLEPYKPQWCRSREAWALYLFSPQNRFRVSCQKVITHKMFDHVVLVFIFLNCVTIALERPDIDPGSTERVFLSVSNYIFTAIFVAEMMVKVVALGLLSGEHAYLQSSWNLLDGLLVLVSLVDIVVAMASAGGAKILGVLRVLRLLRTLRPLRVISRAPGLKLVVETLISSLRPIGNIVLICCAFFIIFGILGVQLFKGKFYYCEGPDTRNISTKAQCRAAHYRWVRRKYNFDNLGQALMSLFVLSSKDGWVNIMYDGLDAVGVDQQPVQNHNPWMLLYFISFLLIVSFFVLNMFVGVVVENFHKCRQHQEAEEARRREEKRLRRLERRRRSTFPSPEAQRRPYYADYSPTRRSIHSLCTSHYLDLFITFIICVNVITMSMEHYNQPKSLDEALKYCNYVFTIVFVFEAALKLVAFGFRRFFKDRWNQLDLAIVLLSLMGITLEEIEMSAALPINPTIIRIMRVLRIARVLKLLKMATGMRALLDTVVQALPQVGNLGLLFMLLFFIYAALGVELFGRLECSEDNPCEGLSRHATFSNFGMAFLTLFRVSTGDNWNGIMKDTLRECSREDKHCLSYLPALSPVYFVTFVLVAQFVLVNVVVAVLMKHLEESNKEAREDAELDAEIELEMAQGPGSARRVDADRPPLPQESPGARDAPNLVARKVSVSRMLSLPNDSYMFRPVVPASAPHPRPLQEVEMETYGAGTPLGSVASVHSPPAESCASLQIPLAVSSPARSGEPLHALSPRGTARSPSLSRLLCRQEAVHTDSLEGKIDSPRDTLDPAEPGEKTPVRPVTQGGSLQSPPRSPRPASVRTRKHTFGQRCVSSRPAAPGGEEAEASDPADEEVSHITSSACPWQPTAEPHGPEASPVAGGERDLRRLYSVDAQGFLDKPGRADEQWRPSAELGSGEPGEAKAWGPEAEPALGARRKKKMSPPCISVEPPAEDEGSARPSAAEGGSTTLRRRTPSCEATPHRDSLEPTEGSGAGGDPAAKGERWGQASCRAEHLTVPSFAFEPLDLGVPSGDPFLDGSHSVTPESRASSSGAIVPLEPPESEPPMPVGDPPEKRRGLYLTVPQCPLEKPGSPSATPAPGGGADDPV

| SMILES | inhibition |
| --- | --- |
| CC1=C(C(=O)OCC(C)C)C(c2ccc(O)c(C(F)(F)F)c2)C2=C(CCC(C)(C)C2=O)N1 (centres undefined) | Active |
| CC1=C(C(=O)OCC(C)C)C(c2cc([N+](=O)[O-])cc([N+](=O)[O-])c2O)C2=C(CCC(C)(C)C2=O)N1 (centres undefined) | Active |
| CCOC(=O)C1=C(C)NC2=C(C(=O)C(C)(C)CC2)C1c1ccc(O)c(C(F)(F)F)c1 (centres undefined) | Active |
| CCOC(=O)C1=C(C)NC2=C(C(=O)C(C)(C)CC2)C1c1cc(Br)cc([N+](=O)[O-])c1O (centres undefined) | Active |
